{
  "source": "ChEMBL document CHEMBL1201862",
  "about": "“PubChem BioAssay data set” (2004)",
  "key": {"[1]": {"biological_target": "T1, Oxysterols receptor LXR-beta (Homo sapiens, UniProt P55055)", "T1 sequence (P55055 whole entry)": "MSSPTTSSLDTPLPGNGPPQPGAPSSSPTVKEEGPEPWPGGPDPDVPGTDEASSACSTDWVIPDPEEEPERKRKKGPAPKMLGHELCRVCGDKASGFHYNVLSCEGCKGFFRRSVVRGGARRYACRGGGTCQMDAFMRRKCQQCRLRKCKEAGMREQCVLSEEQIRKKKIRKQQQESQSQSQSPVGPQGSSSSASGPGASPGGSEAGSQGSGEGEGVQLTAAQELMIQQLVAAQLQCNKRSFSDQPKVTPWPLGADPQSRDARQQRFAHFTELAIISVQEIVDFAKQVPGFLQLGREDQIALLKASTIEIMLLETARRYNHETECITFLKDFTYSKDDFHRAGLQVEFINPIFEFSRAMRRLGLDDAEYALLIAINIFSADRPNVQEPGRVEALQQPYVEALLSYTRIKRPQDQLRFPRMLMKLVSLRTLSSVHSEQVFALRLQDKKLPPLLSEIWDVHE", "assay_type": "functional, cell-based"}, "cells [2]": {"assay": "cells"}, "[3]": {"biological_target": "T2, Nuclear receptor subfamily 0 group B member 1 (Homo sapiens, UniProt P51843)", "T2 sequence (P51843 whole entry)": "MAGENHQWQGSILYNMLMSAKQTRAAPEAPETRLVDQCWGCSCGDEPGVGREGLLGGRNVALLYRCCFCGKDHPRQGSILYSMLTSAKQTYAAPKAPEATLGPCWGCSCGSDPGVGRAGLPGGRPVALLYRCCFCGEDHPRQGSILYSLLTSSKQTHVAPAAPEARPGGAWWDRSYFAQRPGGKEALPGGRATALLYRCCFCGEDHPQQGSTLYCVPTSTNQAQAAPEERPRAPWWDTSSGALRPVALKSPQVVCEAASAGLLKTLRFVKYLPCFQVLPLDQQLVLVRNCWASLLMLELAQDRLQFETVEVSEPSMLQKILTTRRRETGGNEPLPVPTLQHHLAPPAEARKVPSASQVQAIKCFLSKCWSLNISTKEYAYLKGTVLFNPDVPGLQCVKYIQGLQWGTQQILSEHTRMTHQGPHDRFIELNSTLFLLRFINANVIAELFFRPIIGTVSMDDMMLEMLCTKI", "assay_type": "functional, cell-based"}, "cells [4]": {"assay": "cells", "assay_type": "functional, cell-based"}, "[5]": {"assay": "Luminescence-based counterscreen assay for KLF5 inhibitors: dose response cell-based high throughput screening assay to identify cytotoxic compounds using the IEC-6 intestinal epithelial cell line. [Related pubchem assays: 1700 (Primary screen.), 1834 (Confirmation screen.), 1858 (Summary AID.), 1905 (Counterscreen.)]", "assay_type": "functional"}, "[6]": {"biological_target": "Eukaryotic translation initiation factor 4E (Mus musculus, UniProt P63073)", "sequence (P63073 whole entry)": "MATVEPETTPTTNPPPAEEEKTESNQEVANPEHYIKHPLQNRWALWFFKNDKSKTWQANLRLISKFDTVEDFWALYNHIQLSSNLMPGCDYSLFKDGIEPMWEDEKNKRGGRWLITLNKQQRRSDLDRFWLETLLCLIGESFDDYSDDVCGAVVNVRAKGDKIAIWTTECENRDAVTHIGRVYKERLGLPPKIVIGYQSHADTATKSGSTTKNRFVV", "assay": "blockers of eIF4G binding by eIF4E – biochemical, TR-FRET, dose response (AID 855);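 note: potency for disrupting eIF4E binding to eIF4GI seen as loss of FRET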", "assay_type": "functional"}, "Caspase-7": {"biological_target": "T3, Caspase-7 (Homo sapiens, UniProt P55210)", "T3 sequence (P55210 whole entry)": "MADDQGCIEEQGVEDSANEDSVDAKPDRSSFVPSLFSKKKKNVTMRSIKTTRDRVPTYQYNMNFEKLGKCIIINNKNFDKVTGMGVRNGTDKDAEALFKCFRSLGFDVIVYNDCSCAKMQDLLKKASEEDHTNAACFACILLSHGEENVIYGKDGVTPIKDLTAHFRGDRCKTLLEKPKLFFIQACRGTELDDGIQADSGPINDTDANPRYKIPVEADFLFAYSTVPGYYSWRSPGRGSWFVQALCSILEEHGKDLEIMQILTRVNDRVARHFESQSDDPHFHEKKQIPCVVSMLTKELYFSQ", "assay": "potency of procaspase-7 enzyme activation – biochemical, absorbance, human, dual procaspase-3/-7 activator project, dose response (AID 504330)"}, "Caspase-3": {"biological_target": "T4, Caspase-3 (Homo sapiens, UniProt P42574)", "T4 sequence (P42574 whole entry)": "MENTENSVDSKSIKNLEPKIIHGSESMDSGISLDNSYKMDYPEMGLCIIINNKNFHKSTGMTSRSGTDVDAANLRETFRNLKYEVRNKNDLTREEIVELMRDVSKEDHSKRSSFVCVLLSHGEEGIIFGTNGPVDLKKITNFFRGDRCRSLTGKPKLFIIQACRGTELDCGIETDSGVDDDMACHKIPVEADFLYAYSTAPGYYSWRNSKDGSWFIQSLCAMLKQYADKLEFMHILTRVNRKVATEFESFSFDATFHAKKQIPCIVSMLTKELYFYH", "assay": "activators of human procaspase-3 D3A mutant – biochemical, absorbance, PC-3 D3A mutant, counter-screen for dual procaspase-3/7 activator project, dose response (AID 504328)"}, "[7]": {"assay": "A cytotoxicity screen of small molecule inhibitors of the PhoP region in Salmonella typhi identified in the primary screen. [Related pubchem assays: 1850, 1864, 1985 ]", "assay_type": "functional"}, "[8]": {"biological_target": "Delta-type opioid receptor (Homo sapiens, UniProt P41143)", "sequence (P41143 whole entry)": "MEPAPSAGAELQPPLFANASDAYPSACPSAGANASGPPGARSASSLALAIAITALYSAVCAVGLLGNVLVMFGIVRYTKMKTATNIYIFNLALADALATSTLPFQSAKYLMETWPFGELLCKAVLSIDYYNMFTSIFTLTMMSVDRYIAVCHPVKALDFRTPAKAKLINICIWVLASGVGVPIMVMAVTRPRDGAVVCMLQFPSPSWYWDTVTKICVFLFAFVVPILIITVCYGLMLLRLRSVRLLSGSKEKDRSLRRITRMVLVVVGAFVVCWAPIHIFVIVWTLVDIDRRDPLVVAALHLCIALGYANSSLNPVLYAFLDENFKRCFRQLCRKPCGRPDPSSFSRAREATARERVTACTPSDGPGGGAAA", "assay": "Counterscreen for agonists of heterodimerization of the mu 1 (OPRM1) and delta 1 (OPRD1) opioid receptors: Luminescence-based cell-based high throughput dose response assay to identify agonists of OPRD1 homodimerization. [Related pubchem assays (depositor defined):AID504326, AID504355, AID504692, AID504904, AID504905]", "assay_type": "functional"}, "[9]": {"biological_target": "5-hydroxytryptamine receptor 5A (Homo sapiens, UniProt P47898)", "sequence (P47898 whole entry)": "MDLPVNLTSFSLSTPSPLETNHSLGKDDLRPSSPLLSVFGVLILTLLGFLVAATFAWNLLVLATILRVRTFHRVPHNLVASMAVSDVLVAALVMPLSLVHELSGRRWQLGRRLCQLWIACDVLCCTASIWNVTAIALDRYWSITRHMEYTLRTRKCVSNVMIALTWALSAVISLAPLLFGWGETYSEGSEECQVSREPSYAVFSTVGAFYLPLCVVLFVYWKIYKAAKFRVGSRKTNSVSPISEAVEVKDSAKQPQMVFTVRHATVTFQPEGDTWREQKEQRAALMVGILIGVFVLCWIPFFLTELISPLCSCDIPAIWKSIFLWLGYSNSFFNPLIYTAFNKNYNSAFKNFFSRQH", "assay": "Counterscreen for agonists of OPRM1-OPRD1 heterodimerization: luminescence-based cell-based high throughput dose response assay to identify agonists of 5-hydroxytryptamine (serotonin) 5A receptor (HTR5A). [Related pubchem assays (depositor defined):AID504326, AID504355, AID504692, AID504904, AID504905]", "assay_type": "functional"}, "Mu-type opioid receptor": {"biological_target": "Mu-type opioid receptor (Homo sapiens, UniProt P35372)", "sequence (P35372 whole entry)": "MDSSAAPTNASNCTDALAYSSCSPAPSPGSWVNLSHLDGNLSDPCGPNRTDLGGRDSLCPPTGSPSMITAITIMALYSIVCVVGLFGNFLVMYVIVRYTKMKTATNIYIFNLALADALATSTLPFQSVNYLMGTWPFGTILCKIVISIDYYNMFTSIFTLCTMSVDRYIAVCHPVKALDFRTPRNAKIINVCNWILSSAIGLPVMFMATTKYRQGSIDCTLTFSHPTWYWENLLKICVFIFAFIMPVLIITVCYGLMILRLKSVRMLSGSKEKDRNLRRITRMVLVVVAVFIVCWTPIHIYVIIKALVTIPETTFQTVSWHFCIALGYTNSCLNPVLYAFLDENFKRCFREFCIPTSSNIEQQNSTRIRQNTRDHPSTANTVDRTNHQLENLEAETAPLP", "assay": "Counterscreen for agonists of heterodimerization of the mu 1 (OPRM1) and delta 1 (OPRD1) opioid receptors: Luminescence-based cell-based high throughput dose response assay to identify agonists of OPRM1 homodimerization.", "assay_type": "functional"}, "X-box-binding protein 1": {"biological_target": "X-box-binding protein 1 (Homo sapiens, UniProt P17861)", "sequence (P17861 whole entry)": "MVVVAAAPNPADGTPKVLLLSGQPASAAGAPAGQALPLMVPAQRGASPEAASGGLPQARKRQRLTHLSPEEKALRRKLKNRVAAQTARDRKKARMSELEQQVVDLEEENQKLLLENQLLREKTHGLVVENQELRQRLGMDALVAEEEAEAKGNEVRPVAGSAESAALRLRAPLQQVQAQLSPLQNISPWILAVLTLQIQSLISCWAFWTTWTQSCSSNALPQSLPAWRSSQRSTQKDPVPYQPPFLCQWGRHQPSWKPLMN", "assay_type": "functional, Cricetulus griseus"}, "[10]": {"biological_target": "T5, Neuropeptides B/W receptor type 1 (Homo sapiens, UniProt P48145)", "T5 sequence (P48145 whole entry)": "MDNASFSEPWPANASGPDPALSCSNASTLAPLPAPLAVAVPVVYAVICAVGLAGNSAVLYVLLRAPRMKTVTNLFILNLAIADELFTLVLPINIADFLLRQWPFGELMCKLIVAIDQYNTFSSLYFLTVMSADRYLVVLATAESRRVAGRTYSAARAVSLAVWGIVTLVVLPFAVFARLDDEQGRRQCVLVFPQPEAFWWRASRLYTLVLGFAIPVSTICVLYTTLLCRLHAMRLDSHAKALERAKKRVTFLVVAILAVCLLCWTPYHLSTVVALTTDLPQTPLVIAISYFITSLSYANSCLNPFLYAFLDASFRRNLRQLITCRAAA", "assay": "human NPBW1 receptor blockade, IC50 – cell-based, fluorescence, dose response, late-stage follow-up (AID 463251)", "assay_type": "functional"}, "[11]": {"biological_target": "Melanin-concentrating hormone receptor 1 (Homo sapiens, UniProt Q99705)", "sequence (Q99705 whole entry)": "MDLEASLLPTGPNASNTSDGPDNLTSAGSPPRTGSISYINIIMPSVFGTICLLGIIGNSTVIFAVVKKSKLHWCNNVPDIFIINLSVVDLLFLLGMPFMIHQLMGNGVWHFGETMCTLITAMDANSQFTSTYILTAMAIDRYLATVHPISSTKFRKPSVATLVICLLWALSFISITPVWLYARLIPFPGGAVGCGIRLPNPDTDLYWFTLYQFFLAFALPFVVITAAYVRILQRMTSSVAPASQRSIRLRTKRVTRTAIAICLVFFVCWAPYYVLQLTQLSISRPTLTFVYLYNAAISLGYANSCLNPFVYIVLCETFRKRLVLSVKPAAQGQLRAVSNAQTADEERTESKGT", "assay": "Late-stage fluorescence-based counterscreen for antagonists of the G-protein coupled receptor 7 (GPR7): cell-based dose response assay to identify antagonists of the melanin-concentrating hormone receptor 1 (MCHR1). [Related pubchem assays (depositor defined):AID1861, AID1880, AID1952, AID2148, AID2251, AID2257, AID485339]", "assay_type": "functional"}, "BJ [12]": {"test_system": "BJ", "assay": "cells", "assay_type": "functional, cell-based", "details": "Homo sapiens"}, "[13]": {"biological_target": "Luciferin 4-monooxygenase (Photinus pyralis, UniProt P08659)", "sequence (P08659 whole entry)": "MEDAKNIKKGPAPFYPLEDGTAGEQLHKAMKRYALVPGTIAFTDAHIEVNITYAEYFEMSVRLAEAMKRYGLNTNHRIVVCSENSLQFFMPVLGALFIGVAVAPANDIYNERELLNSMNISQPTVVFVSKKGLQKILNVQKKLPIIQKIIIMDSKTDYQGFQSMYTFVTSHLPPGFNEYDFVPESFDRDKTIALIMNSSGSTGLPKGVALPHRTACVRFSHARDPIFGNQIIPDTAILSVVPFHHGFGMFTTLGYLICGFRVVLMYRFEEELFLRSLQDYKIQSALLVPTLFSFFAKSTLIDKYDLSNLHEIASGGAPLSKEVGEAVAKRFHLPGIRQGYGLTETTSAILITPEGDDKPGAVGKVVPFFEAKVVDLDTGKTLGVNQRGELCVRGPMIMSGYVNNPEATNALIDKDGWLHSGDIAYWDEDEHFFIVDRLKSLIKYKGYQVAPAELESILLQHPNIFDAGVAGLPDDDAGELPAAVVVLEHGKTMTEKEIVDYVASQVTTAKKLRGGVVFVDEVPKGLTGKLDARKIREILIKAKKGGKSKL", "assay": "inhibition of purified Photinus pyralis luciferase – biochemical, luminescence, dose response (AID 1891)"}, "BJ [14]": {"test_system": "BJ", "assay": "BJ-TERT-LT-ST fibroblast viability loss – cell-based, RAS-independent, luminescence, dose response (AID 1935);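 note: BJ fibroblasts immortalized with TERT plus LT and ST oncogenes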", "assay_type": "functional", "details": "Homo sapiens"}, "BJ [15]": {"test_system": "BJ", "assay": "BJ-TERT fibroblast viability loss – cell-based, RAS-independent, luminescence, dose response (AID 1933)", "assay_type": "functional", "details": "Homo sapiens"}, "[16]": {"assay": "Luminescence Cell-Based Dose Confirmation HTS to Identify Inhibitors of Platelet Dense Granule Release. [Related pubchem assays: 1663 (Primary HTS), 1678 (Summary of Project)]", "assay_type": "functional"}, "[17]": {"assay": "DRD fibroblast viability loss – cell-based, non-viral oncogenic, luminescence, dose response (AID 1934)", "assay_type": "functional", "details": "Homo sapiens"}, "[18]": {"biological_target": "Glyceraldehyde-3-phosphate dehydrogenase (Homo sapiens, UniProt P04406)", "sequence (P04406 whole entry)": "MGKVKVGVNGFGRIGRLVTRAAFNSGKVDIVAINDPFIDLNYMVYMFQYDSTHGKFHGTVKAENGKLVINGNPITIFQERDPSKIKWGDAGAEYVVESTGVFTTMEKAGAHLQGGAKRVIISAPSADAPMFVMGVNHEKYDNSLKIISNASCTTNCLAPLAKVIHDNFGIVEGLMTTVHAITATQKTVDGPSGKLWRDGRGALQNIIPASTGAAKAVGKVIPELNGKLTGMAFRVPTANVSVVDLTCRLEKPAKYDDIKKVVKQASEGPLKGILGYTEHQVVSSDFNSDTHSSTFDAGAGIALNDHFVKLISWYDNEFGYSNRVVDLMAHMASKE"}},
  "note": "The source made the active and inactive calls.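 Throughout, for Absolute IC50 (XBP1): confirmatory dose-response counter-screen serving a CHOP assay.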",
  "data": [
    {"smiles": "CCc1ccc(NC(=O)c2cnn3ccccc23)cc1", "values": [
      {"measurement": "EC50", "setting": "[1]", "result": "> 67.5 µM (inactive)"},
      {"measurement": "EC50", "setting": "cells [2]", "result": "> 67.5 µM (inactive)"},
      {"measurement": "IC50", "setting": "[3]", "result": "> 0.0926 µM (active)"},
      {"measurement": "IC50", "setting": "cells [4]", "result": "> 67.5 µM (inactive)"},
      {"measurement": "IC50", "setting": "[5]", "result": "> 39.8 µM (not active)"}
    ]},
    {"smiles": "CCOc1ccc(-n2c(-c3ccco3)n[nH]c2=S)cc1", "values": [
      {"measurement": "IC50", "setting": "[6]", "result": "> 64 µM (inactive)"}
    ]},
    {"smiles": "O=C(Nc1ccc(Cc2ccncc2)cc1)C1CCC(N2C(=O)C3C4C=CC(C5CC45)C3C2=O)CC1", "note": "(stereo unspecified)", "values": [
      {"measurement": "EC50", "setting": "Caspase-7", "result": "> 85.3 µM (inactive)"},
      {"measurement": "EC50", "setting": "Caspase-3", "result": "> 85.3 µM (inactive)"}
    ]},
    {"smiles": "COCCn1c(SCC(=O)Nc2nnc(C)s2)nnc1-c1c[nH]c2ccccc12", "values": [
      {"measurement": "EC50", "setting": "[7]", "result": "> 50 µM (active)"}
    ]},
    {"smiles": "COc1cc(C(=O)OC(C)C(=O)NCC2CCCCC2)cc(NC(=O)c2ccco2)c1OC", "note": "(stereo unspecified)", "values": [
      {"measurement": "EC50", "setting": "[8]", "result": "> 92.5 µM (inactive)"},
      {"measurement": "EC50", "setting": "[9]", "result": "> 92.5 µM (inactive)"},
      {"measurement": "EC50", "setting": "Mu-type opioid receptor", "result": "> 92.5 µM (inactive)"},
      {"measurement": "Absolute IC50 (XBP1)", "setting": "X-box-binding protein 1", "result": 10, "unit": "µM"}
    ]},
    {"smiles": "Cc1cc(C)c2nc(N=C(N)NC(=O)c3ccccc3)nc(C)c2c1", "values": [
      {"measurement": "EC50", "setting": "[7]", "result": "> 50 µM (active)"}
    ]},
    {"smiles": "O=C(C1CCCCN1Cc1c(F)cccc1Cl)N1CCN(c2ccc([N+](=O)[O-])cc2)CC1", "note": "(stereo unspecified)", "values": [
      {"measurement": "IC50", "setting": "[10]", "result": "3.3 µM (active)"},
      {"measurement": "IC50", "setting": "[11]", "result": "3.3 µM (active)"}
    ]},
    {"smiles": "O=c1c(Oc2ccc(O)cc2)c(Cl)cnn1-c1ccc(F)cc1", "values": [
      {"measurement": "IC50", "setting": "[10]", "result": "8.7 µM (active)"},
      {"measurement": "IC50", "setting": "[11]", "result": "8 µM (active)"}
    ]},
    {"smiles": "CN(CCO)c1ccc(/C=N/Nc2nncc3ccccc23)cc1", "values": [
      {"measurement": "EC50", "setting": "BJ [12]", "result": "10.8 µM (active)"},
      {"measurement": "EC50", "setting": "[13]", "result": "0.67 µM (active)"},
      {"measurement": "EC50", "setting": "BJ [14]", "result": "> 150 µM (not active)"},
      {"measurement": "EC50", "setting": "BJ [15]", "result": "> 150 µM (not active)"},
      {"measurement": "EC50", "setting": "[16]", "result": "0.533 µM (active)"},
      {"measurement": "IC50", "setting": "[5]", "result": "24.7 µM (not active)"},
      {"measurement": "EC50", "setting": "[17]", "result": "4.01 µM (active)"}
    ]},
    {"smiles": "CC(C)CNC(=O)c1cc(-c2ccc(Cl)cc2Cl)n[nH]1", "values": [
      {"measurement": "IC50", "setting": "[18]", "result": "> 10 µM (inconclusive)"}
    ]}
  ]
}
